Values of other authors, collected in article PMC4336743, “Improved production of sublancin via introduction of three characteristic promoters into operon clusters responsible for this novel distinct glycopeptide biosynthesis” (Microbial Cell Factories, 2015).

Assays:
proteinases, peptidases = system: proteinases, peptidases
Method: Proteolytic susceptibility of sublancin should also be considered in various applications such as in treating bacterial–mediated mastitis or bacterial–mediated gastroenteritis. Therefore, a number of bacterial proteases and gastrointestinal digestive enzymes, e.g., P. aeruginosa elastase and S. aureus V8 protease, pepsin and trypsin would certainly be encountered. […] All experiments were performed in vitro; therefore in vivo studies should be conducted prior to clinical ap ...

S. aureus = system: S. aureus
Method: Antibacterial activity and cytotoxicity of sublancin were also evaluated. […] These findings are consistent with previously reported study and is almost equal to that of nisin that is a common and typical antimicrobial peptide from Lactococcus lactis, and is widely used in clinical and food preservation applications, with MIC of 0.5 mg/L against S. aureus.

Substance	antimicrobial potency after exposure to proteinases, peptidases and heat (proteinases, peptidases)	MIC against S. aureus (S. aureus) [µg/mL]
Bovicin HC5	remarkable antimicrobial potency reduction	
nisin		0.5
